We go through one compound from US20040204475A1, “Pharmaceutical combination” (priority 2003, published 2004).

For data set [1] the following is noted: α-polymorphic hydrobromide salt, oral, cited from earlier work.
The nature of data set [2]: Tablet hardness relative to tablets made from a placebo blend. The format is physicochemical. The following applies: eletriptan at 2.5% w/w of tablet. How it is done:
A mixture of eletriptan hydrobromide (24.24 mg, equivalent to 20 mg of eletriptan free base), sodium bicarbonate (USP, 630 mg) and microcrystalline cellulose (Avicel PH 102, Ph. Eur., 137.76 mg) were blended for 10 minutes, passed through a […] screen and re-blended for a further 10 minutes. Screened intragranular magnesium stearate (Ph. Eur., 8 mg) was added and the mixture was lubricated for 5 minutes. […] The blend was made into a tablet by direct compression. The tablets so produced had excellent weight uniformity and friability.

Data set [3] in a line: Time lag between oral administration and maximal plasma levels, eletriptan in combination with sodium bicarbonate. The following applies: administered in combination with sodium bicarbonate, in some cases. It is filed as in vivo. The text has this:
The advantage to the patient arising from the correspondingly swift amelioration of symptoms is self-evident.

The conditions of data set [4]: 30 mg eletriptan, fasted, cited from earlier work.

Like-named read-outs stand apart in the source and are kept apart here.

In general, Tmax refers to the time at which the peak concentration occurs. `CN1CCC[C@@H]1Cc1c[nH]c2ccc(CCS(=O)(=O)c3ccccc3)cc12` [eletriptan, 3-{[1-methylpyrrolidin-2(R)-yl]methyl}-5-(2-phenylsulfonylethyl)-1H-indole]: the “Tmax (time between administering a standard tablet and maximal plasma concentrations)” value in data set [1] (fasted subjects) is listed as “about 1 hour”; in data set [1] (fed subjects) it was “up to 4 hours”. For the same compound, the “increase in tablet hardness” value in data set [2] turned out to be 0.7 kp. Further, the “time lag between oral administration and maximal plasma levels of drug” value in data set [3] was determined as 30 min. The Tmax was 1.3 ± 1.3 h in data set [4] (migraine-free patients) and 2.8 ± 2.1 h in data set [4] (patients with migraine).
